Test results published in US9682995B2, “Amino-substituted isothiazoles” (BAYER PHARMA AKTIENGESELLSCHAFT, priority 2013, dated 2017).

Columns and labels:
Test in all cases: Kinase Profiling (KINOMEscan)
Type in all cases: binding
[1] = target: 456 kinases (of these 395 non-mutant kinases) (Homo sapiens, UniProt Q8IYT8); settings: ULK2; 10 μM
[2] = target: 456 kinases (of these 395 non-mutant kinases) (Homo sapiens, UniProt Q9Y2H9); settings: MAST1; 10 μM
[3] = target: 456 kinases (of these 395 non-mutant kinases) (Homo sapiens, UniProt Q96BR1); settings: SGK3; 10 μM
[4] = target: 456 kinases (of these 395 non-mutant kinases) (Homo sapiens, UniProt P80192); settings: MLK1; 10 μM
[5] = target: 456 kinases (of these 395 non-mutant kinases) (Homo sapiens, UniProt P51813); settings: BMX; 10 μM
[6] = target: 456 kinases (of these 395 non-mutant kinases) (Homo sapiens, UniProt P78368); settings: CSNK1G2; 10 μM
[7] = target: 456 kinases (of these 395 non-mutant kinases) (Homo sapiens, UniProt O14730); settings: RIOK3; 10 μM
[8] = target: 456 kinases (of these 395 non-mutant kinases) (Homo sapiens, UniProt P53667); settings: LIMK1; 10 μM
[9] = target: 456 kinases (of these 395 non-mutant kinases) (Homo sapiens, UniProt Q96SB4); settings: SRPK1; 10 μM
[10] = target: 456 kinases (of these 395 non-mutant kinases) (Homo sapiens, UniProt P35916); settings: FLT4; 10 μM
456 kinases (of these 395 non-mutant kinases) (Homo sapiens, UniProt P35916), sequence (P35916 25-1363 limits assumed, change not shown): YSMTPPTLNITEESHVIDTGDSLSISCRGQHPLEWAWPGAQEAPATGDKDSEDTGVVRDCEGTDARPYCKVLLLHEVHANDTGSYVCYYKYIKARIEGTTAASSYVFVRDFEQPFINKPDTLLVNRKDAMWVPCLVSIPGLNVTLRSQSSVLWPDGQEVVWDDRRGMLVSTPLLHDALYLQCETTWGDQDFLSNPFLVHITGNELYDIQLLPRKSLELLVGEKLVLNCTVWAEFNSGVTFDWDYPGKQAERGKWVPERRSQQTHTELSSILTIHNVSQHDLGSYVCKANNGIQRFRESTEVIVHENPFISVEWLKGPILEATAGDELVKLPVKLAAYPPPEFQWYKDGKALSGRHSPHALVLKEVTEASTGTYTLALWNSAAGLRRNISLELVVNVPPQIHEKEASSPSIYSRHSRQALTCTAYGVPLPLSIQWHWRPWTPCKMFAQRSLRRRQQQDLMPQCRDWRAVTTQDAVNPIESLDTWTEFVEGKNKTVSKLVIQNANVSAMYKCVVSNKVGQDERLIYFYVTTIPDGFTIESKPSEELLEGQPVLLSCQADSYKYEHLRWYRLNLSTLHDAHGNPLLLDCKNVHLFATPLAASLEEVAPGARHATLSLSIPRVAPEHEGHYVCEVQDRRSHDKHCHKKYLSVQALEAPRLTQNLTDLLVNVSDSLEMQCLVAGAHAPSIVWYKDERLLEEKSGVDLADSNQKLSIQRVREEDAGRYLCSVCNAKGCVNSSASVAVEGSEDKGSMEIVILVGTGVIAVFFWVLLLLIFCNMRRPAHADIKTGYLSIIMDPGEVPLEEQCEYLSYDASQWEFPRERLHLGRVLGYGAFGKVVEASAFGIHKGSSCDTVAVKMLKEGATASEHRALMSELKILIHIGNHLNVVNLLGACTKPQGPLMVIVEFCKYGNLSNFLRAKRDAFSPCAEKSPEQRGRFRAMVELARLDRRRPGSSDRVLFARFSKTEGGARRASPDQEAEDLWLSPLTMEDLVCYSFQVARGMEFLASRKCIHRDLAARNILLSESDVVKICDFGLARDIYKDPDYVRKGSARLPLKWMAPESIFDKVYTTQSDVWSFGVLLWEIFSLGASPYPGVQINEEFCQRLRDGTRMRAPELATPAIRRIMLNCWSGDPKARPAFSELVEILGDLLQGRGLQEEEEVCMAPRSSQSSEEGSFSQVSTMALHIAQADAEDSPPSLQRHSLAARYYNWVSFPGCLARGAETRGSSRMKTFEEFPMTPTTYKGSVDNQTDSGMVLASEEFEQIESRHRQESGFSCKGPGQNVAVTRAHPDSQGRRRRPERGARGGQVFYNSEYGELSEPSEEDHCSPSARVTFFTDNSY

[11] = target: 456 kinases (of these 395 non-mutant kinases) (Homo sapiens, UniProt P53671); settings: LIMK2; 10 μM
[12] = target: 456 kinases (of these 395 non-mutant kinases) (Homo sapiens, UniProt P30530); settings: AXL; 10 μM
456 kinases (of these 395 non-mutant kinases) (Homo sapiens, UniProt P30530), sequence (P30530 26-894 limits assumed, change not shown): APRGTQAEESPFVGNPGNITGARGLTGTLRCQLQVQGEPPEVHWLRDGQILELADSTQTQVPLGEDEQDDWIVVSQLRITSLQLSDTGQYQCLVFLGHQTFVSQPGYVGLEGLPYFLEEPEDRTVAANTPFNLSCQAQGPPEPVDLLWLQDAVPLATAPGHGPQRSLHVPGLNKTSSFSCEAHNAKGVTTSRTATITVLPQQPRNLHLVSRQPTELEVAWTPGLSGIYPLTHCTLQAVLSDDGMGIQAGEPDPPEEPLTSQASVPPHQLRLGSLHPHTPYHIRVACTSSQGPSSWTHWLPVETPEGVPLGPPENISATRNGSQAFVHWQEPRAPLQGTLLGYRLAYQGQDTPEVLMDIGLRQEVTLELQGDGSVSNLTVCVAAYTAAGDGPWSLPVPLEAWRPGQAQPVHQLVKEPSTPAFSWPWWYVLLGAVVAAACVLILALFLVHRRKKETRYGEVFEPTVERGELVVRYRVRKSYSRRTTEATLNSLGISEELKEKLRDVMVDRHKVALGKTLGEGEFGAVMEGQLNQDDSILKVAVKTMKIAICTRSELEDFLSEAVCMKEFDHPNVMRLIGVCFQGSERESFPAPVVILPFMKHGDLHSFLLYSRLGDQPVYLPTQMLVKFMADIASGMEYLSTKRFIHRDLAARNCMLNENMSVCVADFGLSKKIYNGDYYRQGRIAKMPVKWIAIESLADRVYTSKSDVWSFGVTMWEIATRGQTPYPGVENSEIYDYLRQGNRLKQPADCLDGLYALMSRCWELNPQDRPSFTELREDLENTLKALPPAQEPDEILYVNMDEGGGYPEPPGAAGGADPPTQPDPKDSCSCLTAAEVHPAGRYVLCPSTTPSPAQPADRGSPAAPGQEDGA

[13] = target: 456 kinases (of these 395 non-mutant kinases) (Homo sapiens, UniProt Q8NFD2); settings: ANKK1; 10 μM
[14] = target: 456 kinases (of these 395 non-mutant kinases) (Homo sapiens, UniProt P00533, DEL752-759); settings: EGFR(S752-I759del); 10 μM
[15] = target: 456 kinases (of these 395 non-mutant kinases) (Homo sapiens, UniProt P08069); settings: IGF1R; 10 μM
[16] = target: 456 kinases (of these 395 non-mutant kinases) (Homo sapiens, UniProt Q8WTQ7); settings: GRK7; 10 μM
[17] = target: 456 kinases (of these 395 non-mutant kinases) (Homo sapiens, UniProt Q9UBF8); settings: PIK4CB; 10 μM
[18] = target: 456 kinases (of these 395 non-mutant kinases) (Homo sapiens, UniProt Q9H093); settings: SNARK; 10 μM
[19] = target: 456 kinases (of these 395 non-mutant kinases) (Homo sapiens, UniProt O94804); settings: LOK; 10 μM
[20] = target: 456 kinases (of these 395 non-mutant kinases) (Homo sapiens, UniProt Q8IW41); settings: MAPKAPK5; 10 μM
[21] = target: 456 kinases (of these 395 non-mutant kinases) (Homo sapiens, UniProt Q9UK32); settings: 10 μM
[22] = target: 456 kinases (of these 395 non-mutant kinases) (Homo sapiens, UniProt P00533, DEL746-750); settings: EGFR(E746-A750del); 10 μM
[23] = target: 456 kinases (of these 395 non-mutant kinases) (Homo sapiens, UniProt P00533, T790M); settings: EGFR(T790M); 10 μM
[24] = target: 456 kinases (of these 395 non-mutant kinases) (Homo sapiens, UniProt P54760); settings: EPHB4; 10 μM
456 kinases (of these 395 non-mutant kinases) (Homo sapiens, UniProt P54760), sequence (P54760 16-987 limits assumed, change not shown): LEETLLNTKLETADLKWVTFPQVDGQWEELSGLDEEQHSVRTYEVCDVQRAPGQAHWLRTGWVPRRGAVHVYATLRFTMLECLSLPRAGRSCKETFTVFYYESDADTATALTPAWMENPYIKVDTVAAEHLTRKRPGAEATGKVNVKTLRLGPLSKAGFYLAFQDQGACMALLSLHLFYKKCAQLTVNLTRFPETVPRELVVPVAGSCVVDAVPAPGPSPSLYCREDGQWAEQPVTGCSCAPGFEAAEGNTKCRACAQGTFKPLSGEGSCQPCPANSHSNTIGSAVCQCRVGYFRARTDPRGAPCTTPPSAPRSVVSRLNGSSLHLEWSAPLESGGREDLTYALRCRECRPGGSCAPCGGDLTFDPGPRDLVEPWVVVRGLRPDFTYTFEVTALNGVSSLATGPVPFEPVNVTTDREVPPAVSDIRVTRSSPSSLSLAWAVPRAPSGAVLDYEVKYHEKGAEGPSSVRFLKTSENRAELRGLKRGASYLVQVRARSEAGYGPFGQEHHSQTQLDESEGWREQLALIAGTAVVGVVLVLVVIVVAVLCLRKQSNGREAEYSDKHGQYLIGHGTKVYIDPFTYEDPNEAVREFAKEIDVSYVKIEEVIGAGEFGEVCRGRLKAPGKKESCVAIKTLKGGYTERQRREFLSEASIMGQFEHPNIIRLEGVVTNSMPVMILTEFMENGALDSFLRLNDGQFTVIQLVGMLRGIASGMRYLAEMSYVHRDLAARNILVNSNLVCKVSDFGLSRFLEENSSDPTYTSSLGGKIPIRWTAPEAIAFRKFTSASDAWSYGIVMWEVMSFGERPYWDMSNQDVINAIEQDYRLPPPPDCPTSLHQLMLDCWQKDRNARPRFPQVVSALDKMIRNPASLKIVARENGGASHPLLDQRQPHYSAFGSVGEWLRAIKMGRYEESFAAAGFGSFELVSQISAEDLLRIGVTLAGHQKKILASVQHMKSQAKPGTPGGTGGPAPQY

[25] = target: 456 kinases (of these 395 non-mutant kinases) (Homo sapiens, UniProt P21802); settings: FGFR2; 10 μM
456 kinases (of these 395 non-mutant kinases) (Homo sapiens, UniProt P21802), sequence (P21802 22-821 limits assumed, stated change not applied): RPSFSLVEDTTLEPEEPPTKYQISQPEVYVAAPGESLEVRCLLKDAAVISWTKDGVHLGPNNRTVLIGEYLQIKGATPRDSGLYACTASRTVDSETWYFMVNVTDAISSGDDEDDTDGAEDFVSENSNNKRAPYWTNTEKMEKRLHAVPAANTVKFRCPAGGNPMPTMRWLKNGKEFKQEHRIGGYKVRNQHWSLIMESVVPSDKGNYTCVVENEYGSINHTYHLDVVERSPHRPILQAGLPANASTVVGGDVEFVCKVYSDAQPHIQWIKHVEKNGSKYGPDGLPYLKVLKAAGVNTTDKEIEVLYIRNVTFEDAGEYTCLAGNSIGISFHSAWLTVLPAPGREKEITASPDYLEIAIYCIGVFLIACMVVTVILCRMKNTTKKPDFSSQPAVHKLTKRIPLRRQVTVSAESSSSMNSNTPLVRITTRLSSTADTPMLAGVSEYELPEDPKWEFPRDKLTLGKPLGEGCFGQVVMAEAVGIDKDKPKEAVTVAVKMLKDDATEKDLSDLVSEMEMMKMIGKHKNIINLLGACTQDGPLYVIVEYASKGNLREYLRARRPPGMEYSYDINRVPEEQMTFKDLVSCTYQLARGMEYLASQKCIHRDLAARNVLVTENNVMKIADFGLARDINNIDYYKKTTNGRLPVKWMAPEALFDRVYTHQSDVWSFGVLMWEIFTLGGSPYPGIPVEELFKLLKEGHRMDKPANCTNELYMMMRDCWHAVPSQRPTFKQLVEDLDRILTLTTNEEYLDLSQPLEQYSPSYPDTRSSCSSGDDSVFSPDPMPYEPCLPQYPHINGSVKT

[26] = target: 456 kinases (of these 395 non-mutant kinases) (Homo sapiens, UniProt P42336, H1047Y); settings: PIK3CA(H1047Y); 10 μM
[27] = target: 456 kinases (of these 395 non-mutant kinases) (Homo sapiens, UniProt P09619); settings: PDGFRB; 10 μM
456 kinases (of these 395 non-mutant kinases) (Homo sapiens, UniProt P09619), sequence (P09619 33-1106 limits assumed, change not shown): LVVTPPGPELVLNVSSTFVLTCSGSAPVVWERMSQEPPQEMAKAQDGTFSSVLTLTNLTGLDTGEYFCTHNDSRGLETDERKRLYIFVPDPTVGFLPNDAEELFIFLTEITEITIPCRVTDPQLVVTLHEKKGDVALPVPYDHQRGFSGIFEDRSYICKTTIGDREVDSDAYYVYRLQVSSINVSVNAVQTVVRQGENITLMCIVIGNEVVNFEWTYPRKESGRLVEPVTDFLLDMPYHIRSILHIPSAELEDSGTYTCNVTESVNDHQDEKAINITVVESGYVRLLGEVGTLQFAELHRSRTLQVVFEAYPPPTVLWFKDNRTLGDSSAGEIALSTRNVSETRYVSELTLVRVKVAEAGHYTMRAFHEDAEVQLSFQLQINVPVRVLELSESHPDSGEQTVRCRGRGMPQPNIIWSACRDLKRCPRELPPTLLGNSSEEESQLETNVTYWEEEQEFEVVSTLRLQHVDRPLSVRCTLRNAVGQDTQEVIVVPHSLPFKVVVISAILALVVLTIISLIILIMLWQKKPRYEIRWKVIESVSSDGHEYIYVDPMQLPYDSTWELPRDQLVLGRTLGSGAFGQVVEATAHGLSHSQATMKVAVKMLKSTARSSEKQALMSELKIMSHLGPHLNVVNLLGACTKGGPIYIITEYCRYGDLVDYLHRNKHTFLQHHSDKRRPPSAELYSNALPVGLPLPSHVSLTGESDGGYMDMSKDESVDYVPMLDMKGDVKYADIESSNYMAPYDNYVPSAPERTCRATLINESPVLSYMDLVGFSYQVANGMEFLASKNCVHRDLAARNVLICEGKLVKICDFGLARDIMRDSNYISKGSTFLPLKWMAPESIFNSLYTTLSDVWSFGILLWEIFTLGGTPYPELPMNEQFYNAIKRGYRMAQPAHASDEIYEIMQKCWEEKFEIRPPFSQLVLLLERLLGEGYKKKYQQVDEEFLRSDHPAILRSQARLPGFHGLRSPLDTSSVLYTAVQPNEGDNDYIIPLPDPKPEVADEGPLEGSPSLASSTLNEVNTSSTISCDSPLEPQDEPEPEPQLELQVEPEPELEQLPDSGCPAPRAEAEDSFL

[28] = target: 456 kinases (of these 395 non-mutant kinases) (Homo sapiens, UniProt Q86Z02); settings: HIPK1; 10 μM
[29] = target: 456 kinases (of these 395 non-mutant kinases) (Homo sapiens, UniProt Q16512); settings: PKN1; 10 μM
[30] = target: 456 kinases (of these 395 non-mutant kinases) (Homo sapiens, UniProt P36507); settings: MEK2; 10 μM
[31] = target: 456 kinases (of these 395 non-mutant kinases) (Homo sapiens, UniProt P57059); settings: SIK; 10 μM
[32] = target: 456 kinases (of these 395 non-mutant kinases) (Homo sapiens, UniProt Q9NWZ3); settings: IRAK4; 10 μM

Structure (SMILES): CCc1ccccc1NC(=O)c1c(C)nsc1Nc1cnc2cc(F)ccc2n1 [Example 20, N-(2-Ethylphenyl)-5-[(6-fluoroquinoxalin-2-yl)amino]-3-methyl-1,2-thiazole-4-carboxamide]
- % Ctrl @ 10 μM [1]: 100 % Ctrl
- % Ctrl @ 10 μM [2]: 67 % Ctrl
- % Ctrl @ 10 μM [3]: 100 % Ctrl
- % Ctrl @ 10 μM [4]: 100 % Ctrl
- % Ctrl @ 10 μM [5]: 95 % Ctrl
- % Ctrl @ 10 μM [6]: 95 % Ctrl
- % Ctrl @ 10 μM [7]: 91 % Ctrl
- % Ctrl @ 10 μM [8]: 90 % Ctrl
- % Ctrl @ 10 μM [9]: 86 % Ctrl
- % Ctrl @ 10 μM [10]: 87 % Ctrl
- % Ctrl @ 10 μM [11]: 94 % Ctrl
- % Ctrl @ 10 μM [12]: 90 % Ctrl
- % Ctrl @ 10 μM [13]: 100 % Ctrl
- % Ctrl @ 10 μM [14]: 100 % Ctrl
- % Ctrl @ 10 μM [15]: 100 % Ctrl
- % Ctrl @ 10 μM [16]: 94 % Ctrl
- % Ctrl @ 10 μM [17]: 78 % Ctrl
- % Ctrl @ 10 μM [18]: 100 % Ctrl
- % Ctrl @ 10 μM [19]: 100 % Ctrl
- % Ctrl @ 10 μM [20]: 100 % Ctrl
- % Ctrl @ 10 μM ([21]; RSK4(Kin.Dom.1-N-terminal)): 100 % Ctrl
- % Ctrl @ 10 μM ([21]; RSK4(Kin.Dom.2-C-terminal)): 75 % Ctrl
- % Ctrl @ 10 μM [22]: 100 % Ctrl
- % Ctrl @ 10 μM [23]: 100 % Ctrl
- % Ctrl @ 10 μM [24]: 96 % Ctrl
- % Ctrl @ 10 μM [25]: 80 % Ctrl
- % Ctrl @ 10 μM [26]: 100 % Ctrl
- % Ctrl @ 10 μM [27]: 89 % Ctrl
- % Ctrl @ 10 μM [28]: 100 % Ctrl
- % Ctrl @ 10 μM [29]: 61 % Ctrl
- % Ctrl @ 10 μM [30]: 100 % Ctrl
- % Ctrl @ 10 μM [31]: 100 % Ctrl
- % Ctrl @ 10 μM [32]: 100 % Ctrl
